Test results taken from PubChem BioAssay AID588659 (The Scripps Research Institute Molecular Screening Center, 2011).
Activity calls are given as the source filed them.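 The calls were made as follows: active = change in p38 protein level versus solvent-only treated cells of at least 30%, down or up; inactive = change under 30% either way.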

Columns and labels:
[1] = tested on: HT29 cells, p38 western blot, 24 h; experiment: altered p38 MAPK protein abundance – HT29 cells, chemiluminescent western blot, powder samples, counter-screen for KLF5 inhibitor project, late-stage follow-up (AID 588659); settings: measured here: p38 band fold change vs DMSO; at 10 µM
[2] = biological target: Mitogen-activated protein kinase 14 (Homo sapiens) (UniProt Q16539); experiment: as above; settings: HT29 cells, p38 western blot, 24 h; at 10 µM; stronger effect = higher value
Sequence of Mitogen-activated protein kinase 14 (Homo sapiens) (Q16539 whole entry, looked up): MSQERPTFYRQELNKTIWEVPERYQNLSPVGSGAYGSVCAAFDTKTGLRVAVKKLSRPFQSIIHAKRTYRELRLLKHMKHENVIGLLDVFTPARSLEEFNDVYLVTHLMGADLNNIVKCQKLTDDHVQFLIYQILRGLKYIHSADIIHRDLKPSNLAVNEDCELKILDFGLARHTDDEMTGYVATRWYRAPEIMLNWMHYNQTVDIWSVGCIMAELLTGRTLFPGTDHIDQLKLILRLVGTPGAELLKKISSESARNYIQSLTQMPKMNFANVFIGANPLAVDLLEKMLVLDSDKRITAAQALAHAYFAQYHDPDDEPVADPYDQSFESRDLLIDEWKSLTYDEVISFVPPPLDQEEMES

inhibition [2]	SMILES	fold change [1]
-2.37% (inactive)	CN(C(=O)CNC(=O)/C=C/c1cccc(Cl)c1)C1CCS(=O)(=O)C1 (centres undefined)	1.02
14.3% (inactive)	CN(C(=O)COC(=O)/C=C/c1cccc([N+](=O)[O-])c1)C1CCS(=O)(=O)C1 (centres undefined)	–
10.2% (inactive)	CN(C(=O)CNC(=O)/C=C/c1cccc(Cl)c1)C1CCS(=O)(=O)CC1	–
